Key:
[1] = cited from earlier work
[2] = tested on: salmon lice; set-up: species or system Lepeophteirus salmonis; conditions: in vivo

Question: Which results are given for `COc1cc(CNC(=O)CCCC/C=C/C(C)C)ccc1O` [capsaicin]?
Answer: solubility in ethanol and other hydrophobic solvents ([1]; pure capsaicin): soluble; solubility in water ([1]; water): not soluble; effect on the lice [2]: has an effect; sum of the effects on lice of each agent on its own versus the combination of capsaicin and acetic acid [2]: considerably lower

— US20220030882A1, “Composition and Method to Remove Parasites From Fish and to Prevent or Treat Infestation or Infection of Parasites on Fish” (priority 2018, published 2022)
